# Test results reported in US20250127774A1, “COMPOUNDS FOR LABELLING NUCLEIC ACID AND USES THEREOF” (THE ROYAL INSTITUTION FOR THE ADVANCEMENT OF …, priority 2022, published 2025).
# What was measured:
# Jurkat cells [1] = test: Resazurin combination toxicity assay; assay type: cell-based; details: Homo sapiens
# Procedure: (§1) From the single toxicity experiment, it was determined that the optimal subtoxic concentration of PINK to be used for the combination toxicity assays would be 1 μM. To test how effective the vinyl-nucleosides (VdU/VdA) in combination with PINK are at killing the cells compared to the vinyl-nucleosides alone, another resazurin reduction assay was carried out.
# (§2) To determine if it is possible to treat the leukemia cells with the vinyl-nucleosides and PINK simultaneously, instead of adding them sequentially, another resazurin reduction assay using the same concentrations of each compound as in the previous combination experiment was carried out, where instead the vinyl-nucleosides and PINK were added on the same day instead of on two consecutive days.
# (§3) Resazurin Combination toxicity assays. MV4-11, MOLM-13 and Jurkat cells were seeded in 96-well plates at a density of 20 000 cells/well, 25 000 cells/well and 30 000 cells/well, respectively, in triplicates. For the sequential addition, the cells were first treated with the nucleosides (VdU/VdA) diluted in fresh media in 1:4 serial dilutions (˜0.01% DMSO) at concentrations of 500-0 μM, and incubated overnight. 24h post nucleoside addition, the cells were treated with 1 μM PINK diluted in fresh media (˜1% DMSO), and incubated for 24-72h. The cells were treated with resazurin, incubated and measured, as described above. For the simultaneous addition, the cells were treated with nucleosides and PINK on the same day at the same concentrations as describes above, and incubated for 24-72h.
# MV4-11 cells [2] = test: Resazurin combination toxicity assay; assay type: cell-based; details: Homo sapiens
# Procedure: as §1, §2, §3
# MV4-11 and Jurkat = test: Resazurin single toxicity assay, summary over both cell lines; assay type: cell-based; details: Homo sapiens, after 24 h and 72h, read-out: IC50 summarised over both cell lines
# Procedure: (§4) Resazurin assays were carried out to test the effectiveness of VdU, VdA and PINK alone in MV4-11 and Jurkat. The resazurin reduction assay is a colorimetric assay which allows to determine a cell's viability based on its metabolic activities.^26 When the cells are alive, the resazurin gets reduced by NADH into its resorufin form by cellular respiration, which is pink and highly fluorescent.^26 When the cells are dead or their metabolisms are impaired, the resazurin remains in its oxidized form, which is blue and has low fluorescence.^26 The cells can then be imaged using a spectrometer to determine how viable they are after each treatment.
# Overall, VdU presented itself as a good candidate for the combination therapy with PINK due to its low toxicity in the two leukemia cell lines.
# (§5) Resazurin Single toxicity assay. MV4-11 and Jurkat cells were seeded in 96-well plates at a density of 20 000 cells/well, in triplicates. The cells were treated with each nucleoside (VdU/VdA) alone diluted in fresh media in 1:4 serial dilutions (˜0.01% DMSO) at concentrations of 1000-0 μM. The cells were treated with PINK alone diluted in fresh media in 1:2 serial dilutions (˜1% DMSO) at concentration of 100-0 μM. The cells were then incubated for 24 h and 72h. 10 μL of 870 μM resazurin was added per well, and incubated for 2-5 hours. After incubation, the fluorescence intensity at 590 nm (excitation=560 nm) was measured using a SpectraMax M5 plate reader.
# MOLM-13 cells = test: Resazurin Chou-Talalay optimized toxicity assay; assay type: cell-based; details: Homo sapiens; MOLM-13, Fa 0.50 (50% cells killed); read-out: Concentration of compound alone required at Fa
# Procedure: (§6) Lastly to determine how synergistic the combination of VdU with PINK is in the three leukemia cell lines, another resazurin reduction assay was conducted where VdU and PINK were maintained at a constant 5:1 ratio. The data generated from this resazurin assay were analyzed using the synergy model developed by Chou and Talalay 30, which is based on the median effect dose (IC50) and the slope of the drug response curve, as shown in equation II: […]
# (§7) The model allows to quantitatively measure the synergy of drug combinations, by generating a combination index (CI).^30 A CI below 1 indicates a synergistic interaction which means that the effect of the drug combination is greater than the effect of both drugs alone combined.^30A CI equal to 1 indicates an additive interaction which means that the effect of the drug combination is equal to the effect of both drugs alone combined.^30 A CI above 1 indicates an antagonistic interaction which means that the effect of the drug combination is less than the effect of both alone combined. […] Where a DRI above 1 is a favorable dose reduction and a DRI below 1 is an unfavorable dose reduction.^30
# (§8) Resazurin Chou-Talalay optimized toxicity assay. MV4-11, MOLM-13 and Jurkat cells were seeded in 96-well plates at a density of 20 000 cells/well, 25 000 cells/well and 30 000 cells/well, respectively, in triplicates. The cells were first treated with VdU diluted in fresh media in 1:4 serial dilutions (˜0.01% DMSO) at concentrations of 500-0 μM alone and in combination, and incubated overnight. 24h post nucleoside addition, the cells were treated with PINK diluted in fresh media in 1:4 serial dilutions (˜1% DMSO) at concentrations of 100-0 μM alone or in combination, and incubated for 72 h. […] The cells were treated with resazurin, incubated and measured, as described above. The data was processed and analysed in the CompuSyn program used for running Chou-Talalay synergy analyses.^33
# Jurkat cells [3] = test: Resazurin Chou-Talalay optimized toxicity assay; assay type: cell-based; details: Homo sapiens, Fa 0.50 (50% cells killed), read-out: Concentration of compound alone required at Fa
# Procedure: as §6, §7, §8
# H1299 cells = test: FACS cell cycle analysis; assay type: cell-based, human; details: H1299, 48 h and 72 h after the initial treatment
# Procedure: 5-VdU and PINK combinatory impact on the cell cycle. FACS analysis of H1299 cells treated with 5-VdU/PINK whos that the cell cycle progression is severely impacted upon combinatory treatment. […] (see FIG. 26). Percentage of H1299 cells undergoing apoptosis was indicated by staining with Apotracker™ Green, induced after treatment with 1 μM 5-VdU and 10 μM PINK for different time points. H1299 cells were seeded at a density of 20% and treated with 5-VdU and PINK in the indicated concentrations. One day after the last treatment, the medium was exchanged. The cells were then stained with the Apotracker™ Green dye and Hoechst. Images were taken 72h after the first treatment. (C) H1299 cells were treated with 1 μM 5-VdU for 24 h and subsequently with 5 μM PINK for another 24 h.
# Jurkat cells [4] = test: Resazurin single toxicity assay; assay type: cell-based; details: Homo sapiens, compound alone
# Procedure: as §4, §5
# MV4-11 cells [5] = test: Resazurin single toxicity assay; assay type: cell-based; details: Homo sapiens, compound alone
# Procedure: as §4, §5
# MV4-11 cells [6] = test: Resazurin Chou-Talalay optimized toxicity assay; assay type: cell-based, human; details: MV4-11, Fa 0.25-0.35 (25% to 35% of cells killed)
# Procedure: as §6, §7
# Resazurin Chou-Talalay optimized toxicity assay. […] The cells were treated with resazurin, incubated and measured, as described above. The data was processed and analysed in the CompuSyn program used for running Chou-Talalay synergy analyses.^33
# [7] = 48 h, variable VdU/VdA alone or with 1 μM PINK added on the same day, read-out: IC50 value (48 h) for simultaneous addition
# [8] = variable VdU/VdA alone or with 1 μM PINK added 24 h post nucleoside addition, read-out: IC50 value (48 h) for sequential addition
# [9] = 24 h incubation, read-out: IC50 value (24 h)
# [10] = 72 h incubation, read-out: IC50 value (72 h)
# [11] = MV4-11, 24 h incubation, read-out: IC50 value (24 h)
# [12] = MV4-11, 72 h incubation, read-out: IC50 value (72 h)
SMILES,IC50 (Jurkat cells [1]; [7]) [µM],IC50 (Jurkat cells [1]; [8]) [µM],IC50 (MV4-11 cells [2]; [7]) [µM],IC50 (MV4-11 cells [2]; [8]) [µM],IC50 (MV4-11 and Jurkat) [µM],IC50 (MOLM-13 cells) [µM],IC50 (Jurkat cells [3]) [µM],cell cycle profile (time course) (H1299 cells),IC50 (Jurkat cells [4]; [9]) [µM],IC50 (Jurkat cells [4]; [10]) [µM],IC50 (MV4-11 cells [5]; [11]) [µM],IC50 (MV4-11 cells [5]; [12]) [µM],Concentration of compound alone required at Fa (MV4-11 cells [6]) [µM]
"C=Cc1cn([C@H]2C[C@H](O)[C@@H](CO)O2)c(=O)[nH]c1=O [VdU, 5-vinyl-2′-deoxyuridine]",404,58,124,60,> 1000,4.2,3.7,mostly unperturbed cell cycle profiles,> 1000,52,> 1000,> 1000,59
Cc1nnc(-c2ccc3cc4ccc(N(C)C)cc4nc3c2)nn1 [PINK],–,–,–,–,~5,1.2,1.1,mostly unperturbed cell cycle profiles,7,4.4,5.7,6.2,3.2
